According to US11279714B2, “Anti-infective compounds” (priority 2014, dated 2022):
In brackets after ≈: the same amount, converted by molar mass.

Assays:
[1] = system: Raw 264.7 cells infected with H37Rv-GFP; test: microbe, parasite or virus in culture; format: cell-based, M. tuberculosis; details: Mycobacterium tuberculosis, H37RV, 120 h; read-out: QIM (MIC50)
[2] = system: M. tuberculosis H37Rv expressing the green fluorescent protein (H37Rv-GFP); test: microbe, parasite or virus in culture; format: cell-based; details: Mycobacterium tuberculosis, H37RV, 120 h; read-out: QUM (MIC50)

Compound | MIC50 [1] | MIC50 [2] | melting point
O=C(Nc1ccc(Oc2ccccc2)cc1)c1cc2sc(N3CCCCC3)nc2s1 [Compound 61] | < 1 µM | 1 to 20 µM (≈ 0.436 to 8.71 µg/mL) | 201 °C
COC(=O)c1ccc(CCNC(=O)c2cc3sc(N4CCCCC4)nc3s2)cc1 [Compound 43] | < 1 µM | 1 to 20 µM (≈ 0.43 to 8.59 µg/mL) | 212.9 °C
CC(CNC(=O)c1ccc2nc(N3CCCCC3)sc2c1)c1ccccc1 (stereo not drawn) [Compound 1] | > 20 µM | > 20 µM | 196 °C
O=C(Nc1ccc2ncccc2c1)c1cc2sc(N3CCCCC3)nc2s1 [Compound 40] | < 1 µM | 1 to 20 µM (≈ 0.395 to 7.89 µg/mL) | 279.5 °C
Cc1nc2cc(NC(=O)c3sc4nc(N5CCOCC5)sc4c3-c3ccccc3)ccc2o1 [Compound 166] | > 20 µM | > 20 µM | 285 °C
COCn1c(N2CCOCC2)nc2sc(C(=O)Nc3ccc4oc(C)nc4c3)cc21 [Compound 179] | > 20 µM | > 20 µM | 117.2 °C
COc1ccc(CN(c2nc3sc(C(=O)Nc4ccc(OC)cc4)cc3s2)C(C)C)cc1 [Compound 121] | < 1 µM | > 20 µM | 131 °C
O=C(Nc1cccc(Oc2ccccc2)c1)c1cc2sc(N3CCOCC3)nc2s1 [Compound 87] | 1 to 20 µM (≈ 0.438 to 8.75 µg/mL) | 1 to 20 µM (≈ 0.438 to 8.75 µg/mL) | 169.5 °C
COc1ccc(NC(=O)c2cc3sc(N4CC5CC4CN5C(=O)OC(C)(C)C)nc3s2)cc1 (stereo not drawn) [Compound 93] | > 20 µM | > 20 µM | 249 °C
COc1ccc(CNC(=O)c2cc3sc(N4CCCCC4)nc3s2)cc1 [Compound 59] | > 20 µM | > 20 µM | 142 °C
Cc1nc2cc(NC(=O)c3cc4sc(N5CCNCC5)nc4s3)ccc2o1 [Compound 140] | 1 to 20 µM (≈ 0.4 to 7.99 µg/mL) | 1 to 20 µM (≈ 0.4 to 7.99 µg/mL) | 235.3 °C
O=C(Nc1ccc(Cl)cc1)c1cc2sc(N3CCCCC3)nc2s1 [Compound 45] | < 1 µM | 1 to 20 µM (≈ 0.378 to 7.56 µg/mL) | 275.2 °C
CC1CCN(c2ccc(NC(=O)c3cc4sc(N5CCOCC5)nc4s3)cc2)CC1 [Compound 194] | < 1 µM | 1 to 20 µM (≈ 0.443 to 8.85 µg/mL) | 278 °C
O=C(Nc1ccc(F)c(F)c1)c1cc2nc(N3CCCCC3)sc2s1 [Compound 3] | < 1 µM | 1 to 20 µM (≈ 0.379 to 7.59 µg/mL) | 246.3 °C
COc1ccc(NC(=O)c2cc3sc(N4CCCCC4)nc3s2)cn1 [Compound 47] | < 1 µM | < 1 µM | 232.4 °C
CN(C)C(=O)C1CCN(c2nc3sc(C(=O)Nc4ccc5oc(CCc6ccc(F)cc6)nc5c4)cc3s2)CC1 [Compound 197] | < 1 µM | > 20 µM | 259 °C
Cc1nc2cc(NC(=O)c3cc4sc(N5CCOCC5)nc4s3)c(Cl)cc2o1 [Compound 141] | > 20 µM | > 20 µM | 277 °C
COc1ccc(NC(=O)c2ccc3nc(N4CCCCC4)ccc3c2)cc1 [Compound 17] | > 20 µM | 1 to 20 µM (≈ 0.361 to 7.23 µg/mL) | 209 °C
COc1ccc(C(=O)Nc2cc3sc(N4CCCCC4)nc3s2)cc1 [Compound 98] | > 20 µM | > 20 µM | 92 °C

Compound | MIC50 [1] | MIC50 [2] | melting point
O=C(Nc1cccc(OCc2ccccc2)c1)c1cc2sc(N3CCOCC3)nc2s1 [Compound 109] | > 20 µM | > 20 µM | 223.4 °C
Cc1nc2cc(NC(=O)c3cc4sc(N5CCC(O)CC5)nc4s3)ccc2o1 [Compound 122] | < 1 µM | < 1 µM | 238.5 °C
Cn1cnc2ccc(NC(=O)c3cc4sc(N5CCOCC5)nc4s3)cc21 [Compound 117] | > 20 µM | > 20 µM | 314 °C
COc1ccc(NC(=O)c2csc3nc(N4CCCCC4)sc23)cc1 [Compound 73] | > 20 µM | > 20 µM | 209.8 °C
CN(C)C(=O)C1CCN(c2nc3sc(C(=O)Nc4ccc(F)cc4)cc3s2)CC1 [Compound 136] | < 1 µM | < 1 µM | 296.2 °C
COc1ccc(NC(=O)c2cc3sc(N4CCC(Oc5ccccc5)CC4)nc3s2)cc1 [Compound 106] | < 1 µM | > 20 µM | 225 °C
COc1ccc(NC(=O)c2cc3sc(N4CCN5CCCC5C4)nc3s2)cc1 (stereo not drawn) [Compound 100] | < 1 µM | 1 to 20 µM (≈ 0.415 to 8.29 µg/mL) | 195 °C
Cc1cc2cc(NC(=O)c3cc4sc(N5CCOCC5)nc4s3)ccc2o1 [Compound 135] | < 1 µM | 1 to 20 µM (≈ 0.399 to 7.99 µg/mL) | 231.3 °C
CN(C)C(=O)C1CCN(c2nc3sc(C(=O)n4nc(-c5ccc(N)cc5)cc4O)cc3s2)CC1 [Compound 198] | > 20 µM | > 20 µM | 269 °C
Cc1cnc(-c2ccc(NC(=O)c3cc4sc(N5CCOCC5)nc4s3)cc2)o1 [Compound 154] | < 1 µM | < 1 µM | 287.3 °C
COc1ccc(CCNC(=O)c2cc3sc(N4CCCCC4)nc3s2)cc1 [Compound 42] | < 1 µM | 1 to 20 µM (≈ 0.402 to 8.03 µg/mL) | 177.2 °C
Cn1cc2ccc(NC(=O)c3cc4sc(N5CCOCC5)nc4s3)cc2n1 [Compound 132] | < 1 µM | > 20 µM | 313.7 °C
COc1ccc(NC(=O)c2cc3ncsc3s2)cc1 [Compound 21] | > 20 µM | > 20 µM | 236 °C
Cc1nc2cc(NC(=O)c3cc4sc(N(C)CCO)nc4s3)ccc2o1 [Compound 201] | 1 to 20 µM (≈ 0.388 to 7.77 µg/mL) | < 1 µM | 226.3 °C
Cc1nc2cc(NC(=O)c3sc4nc(N5CCOCC5)sc4c3Br)ccc2o1 [Compound 157] | > 20 µM | > 20 µM | 269 °C
COc1ccc(NC(=O)c2cc3sc(N4CCC(C(N)=O)CC4)nc3s2)cc1 [Compound 126] | > 20 µM | 1 to 20 µM (≈ 0.417 to 8.33 µg/mL) | 276.1 °C
COc1c(C(=O)Nc2ccc3oc(C)nc3c2)sc2nc(N3CCOCC3)sc12 [Compound 172] | > 20 µM | > 20 µM | 269 °C
Cc1nc2cc(NC(=O)c3cc4sc(N5CCC(C(=O)N(C)C)C5)nc4s3)ccc2o1 (stereo not drawn) [Compound 192] | 1 to 20 µM (≈ 0.456 to 9.11 µg/mL) | 1 to 20 µM (≈ 0.456 to 9.11 µg/mL) | 274 °C
O=C1Cc2cc(NC(=O)c3cc4nc(N5CCCCC5)sc4s3)ccc2N1 [Compound 23] | > 20 µM | > 20 µM | 260 °C

Compound | MIC50 [1] | MIC50 [2] | melting point
CN(C(=O)c1cc2nc(N3CCCCC3)sc2s1)c1ccc(F)c(F)c1 [Compound 20] | > 20 µM | 1 to 20 µM (≈ 0.393 to 7.87 µg/mL) | 170.1 °C
O=C(Nc1ccc2[nH]ncc2c1)c1cc2sc(N3CCOCC3)nc2s1 [Compound 89] | > 20 µM | > 20 µM | 329.8 °C
CN(C)C(=O)C1CCN(c2nc3sc(C(=O)Nc4ccc5oc(CN6CCOCC6)nc5c4)cc3s2)CC1 [Compound 196] | 1 to 20 µM (≈ 0.555 to 11.1 µg/mL) | 1 to 20 µM (≈ 0.555 to 11.1 µg/mL) | 239 °C
O=C(Nc1ccn(-c2ccccc2)n1)c1cc2sc(N3CCOCC3)nc2s1 [Compound 165] | 1 to 20 µM (≈ 0.412 to 8.23 µg/mL) | > 20 µM | 257.8 °C
COc1ccc(NC(=O)c2cc3sc(N4CC5CC4CN5)nc3s2)cc1 (stereo not drawn) [Compound 94] | > 20 µM | > 20 µM | 161 °C
Cc1nc2cc(NC(=O)c3cc4sc(N5CCCC(C(=O)N(C)C)C5)nc4s3)ccc2o1 (stereo not drawn) [Compound 178] | 1 to 20 µM (≈ 0.47 to 9.39 µg/mL) | 1 to 20 µM (≈ 0.47 to 9.39 µg/mL) | 133.6 °C
CCOC(=O)c1ccc(NC(=O)c2cc3sc(N4CCOCC4)nc3s2)cc1 [Compound 108] | < 1 µM | 1 to 20 µM (≈ 0.418 to 8.35 µg/mL) | 274 °C
Cc1nc2c(NC(=O)c3cc4sc(N5CCOCC5)nc4s3)cccc2o1 [Compound 102] | > 20 µM | > 20 µM | 209.3 °C
O=C(Nc1ccc(C(F)(F)F)cc1)c1cc2sc(N3CCCCC3)nc2s1 [Compound 41] | < 1 µM | > 20 µM | 289.2 °C
O=C(Nc1ccc(OC(F)(F)F)cc1)c1cc2nc(N3CCCCC3)sc2s1 [Compound 14] | < 1 µM | 1 to 20 µM (≈ 0.427 to 8.55 µg/mL) | 238 °C
Cc1nc2cc(NC(=O)c3cc4sc(N5CC(C)OC(C)C5)nc4s3)ccc2o1 (stereo not drawn) [Compound 180] | < 1 µM | 1 to 20 µM (≈ 0.429 to 8.57 µg/mL) | 274 °C
COC(=O)C1CCC(NC(=O)c2cc3sc(N4CCCCC4)nc3s2)CC1 (stereo not drawn) [Compound 60] | 1 to 20 µM (≈ 0.408 to 8.15 µg/mL) | 1 to 20 µM (≈ 0.408 to 8.15 µg/mL) | 74 °C
O=C(Nc1ccc(CN2CCN(c3ccc(Cl)cc3)CC2)cc1)c1cc2sc(N3CCOCC3)nc2s1 [Compound 199] | < 1 µM | 1 to 20 µM (≈ 0.554 to 11.1 µg/mL) | 249.9 °C
N#Cc1ccc(NC(=O)c2cc3nc(N4CCCCC4)sc3s2)cc1 [Compound 32] | < 1 µM | 1 to 20 µM (≈ 0.368 to 7.37 µg/mL) | 163 °C
O=C(Nc1ccc(F)cc1)c1cc2sc(N3CCOCC3)nc2s1 [Compound 99] | < 1 µM | 1 to 20 µM (≈ 0.363 to 7.27 µg/mL) | 240 °C
CC(C)(C)OC(=O)c1ccc(NC(=O)c2cc3sc(N4CCOCC4)nc3s2)cc1 [Compound 129] | < 1 µM | 1 to 20 µM (≈ 0.446 to 8.91 µg/mL) | 244 °C
O=C(Nc1ccc(Oc2ccc(Cl)cc2)cc1)c1cc2sc(N3CCOCC3)nc2s1 [Compound 146] | < 1 µM | 1 to 20 µM (≈ 0.472 to 9.44 µg/mL) | 225 °C
Cc1nc2cc(NC(=O)c3cn4nc(N5CCOCC5)sc4n3)ccc2o1 [Compound 189] | > 20 µM | > 20 µM | 311 °C
